Measurements: US8791102B2, “Acetanilide sphingosine-1-phosphate receptor antagonists” (Exelixis, Inc., priority 2008, dated 2014)

Target: T1, human S1P1 receptors (Homo sapiens, UniProt P21453)
T1 construct: host or cells: HEK293
Assay: S1P1R antagonist assay (fluorescent membrane potential dye, cAMP readout)
Type: cell-based
Details: HEK293 cells expressing human S1P1 receptors and CNG channel; 500 nM NECA; S1P1R agonist 10 nM; 90 minutes; read-out: EC50 or IC50 value

T1 sequence (P21453 whole entry): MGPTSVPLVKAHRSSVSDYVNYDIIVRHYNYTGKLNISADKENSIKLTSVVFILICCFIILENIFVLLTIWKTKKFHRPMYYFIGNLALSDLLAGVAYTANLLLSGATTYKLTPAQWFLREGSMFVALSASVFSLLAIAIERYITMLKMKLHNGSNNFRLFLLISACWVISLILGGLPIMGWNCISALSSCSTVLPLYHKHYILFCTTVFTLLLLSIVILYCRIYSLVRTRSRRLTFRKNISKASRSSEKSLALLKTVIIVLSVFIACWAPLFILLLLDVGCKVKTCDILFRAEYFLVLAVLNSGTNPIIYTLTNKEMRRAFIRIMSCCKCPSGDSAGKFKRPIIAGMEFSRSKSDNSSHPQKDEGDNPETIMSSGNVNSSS

| SMILES | IC50 [nM] |
| --- | --- |
| O=C(Cc1cccc(OC(F)(F)F)c1)N[C@@H](COCc1ccccc1)C(=O)Nc1ccc(Oc2ccc(F)cc2)cc1 [Compound 102, (S)-3-(benzyloxy)-N-(4-(4-fluorophenoxy)phenyl)-2-(2-(3-(trifluoromethoxy)phenyl)acetamido)propanamide] | > 1000 |
| O=C(CCCCc1ccccc1)N[C@@H](COCc1ccccc1)C(=O)Nc1ccc(Oc2ccc(F)cc2)cc1 [Compound 104, (S)—N-(3-(benzyloxy)-1-(4-(4-fluorophenoxy)phenylamino)-1-oxopropan-2-yl)-5-phenylpentanamide] | > 1000 |
| O=C(CN1CCC(N2CCOCC2)CC1)N[C@@H](COCc1ccccc1)C(=O)Nc1ccc(Oc2ccc(F)cc2)cc1 [Compound 105, (S)-3-(benzyloxy)-N-(4-(4-fluorophenoxy)phenyl)-2-(2-(4-morpholinopiperidin-1-yl)acetamido)propanamide] | > 1000 |
| CCN(CC)C1CCN(CC(=O)N[C@@H](COCc2ccccc2)C(=O)Nc2ccc(Oc3ccc(F)cc3)cc2)C1 (stereo partly drawn) [Compound 109, (2S)-3-(benzyloxy)-2-(2-(3-(diethylamino)pyrrolidin-1-yl)acetamido)-N-(4-(4-fluorophenoxy)phenyl)propanamide] | > 1000 |
| O=C(CN1CCN(CC2CCCO2)CC1)N[C@@H](COCc1ccccc1)C(=O)Nc1ccc(Oc2ccc(F)cc2)cc1 (stereo partly drawn) [Compound 110, (2S)-3-(benzyloxy)-N-(4-(4-fluorophenoxy)phenyl)-2-(2-(4-((tetrahydrofuran-2-yl)methyl)piperazin-1-yl)acetamido)propanamide] | > 1000 |
| CC(C)N1CCN(CC(=O)N[C@@H](COCc2ccccc2)C(=O)Nc2ccc(Oc3ccc(F)cc3)cc2)CC1 [Compound 111, (S)-3-(benzyloxy)-N-(4-(4-fluorophenoxy)phenyl)-2-(2-(4-isopropylpiperazin-1-yl)acetamido)propanamide] | > 1000 |
| O=C(CN1CCN(c2ncccc2C(F)(F)F)CC1)N[C@@H](COCc1ccccc1)C(=O)Nc1ccc(Oc2ccc(F)cc2)cc1 [Compound 112, (S)-3-(benzyloxy)-N-(4-(4-fluorophenoxy)phenyl)-2-(2-(4-(3-(trifluoromethyl)pyridin-2-yl)piperazin-1-yl)acetamido)propanamide] | > 1000 |
| CCN1CCN(CC(=O)N[C@@H](COCc2ccccc2)C(=O)Nc2ccc(Oc3ccc(F)cc3)cc2)CC1 [Compound 114, (S)-3-(benzyloxy)-2-(2-(4-ethylpiperazin-1-yl)acetamido)-N-(4-(4-fluorophenoxy)phenyl)propanamide] | > 1000 |
| O=C(Nc1ccc(Oc2ccc(F)cc2)cc1)[C@@H]1C[C@@H](Cc2ccccc2)CN1C(=O)Cc1cccs1 [Compound 117, (2S,4R)-4-benzyl-N-(4-(4-fluorophenoxy)phenyl)-1-(2-(thien-2-yl)acetyl)pyrrolidine-2-carboxamide] | ≤ 300 |
| CC(O)CC(=O)N1C[C@H](Cc2ccccc2)C[C@H]1C(=O)Nc1ccc(Oc2ccc(F)cc2)cc1 (stereo partly drawn) [Compound 118, (2S,4R)-4-benzyl-N-(4-(4-fluorophenoxy)phenyl)-1-(3-hydroxybutanoyl)pyrrolidine-2-carboxamide] | ≤ 300 |
| O=C(Nc1ccc(Oc2ccc(F)cc2)cc1)[C@@H]1C[C@@H](Cc2ccccc2)CN1C(=O)Cc1c(Cl)cccc1Cl [Compound 119, (2S,4R)-4-benzyl-1-(2-(2,6-dichlorophenyl)acetyl)-N-(4-(4-fluorophenoxy)phenyl)pyrrolidine-2-carboxamide] | ≤ 300 |
| O=C(Nc1ccc(Oc2ccc(F)cc2)cc1)[C@@H]1C[C@@H](Cc2ccccc2)CN1C(=O)CO [Compound 120, (2S,4R)-4-benzyl-N-(4-(4-fluorophenoxy)phenyl)-1-(2-hydroxyacetyl)pyrrolidine-2-carboxamide] | ≤ 300 |
| CCOCC(=O)N1C[C@H](Cc2ccccc2)C[C@H]1C(=O)Nc1ccc(Oc2ccc(F)cc2)cc1 [Compound 121, (2S,4R)-4-benzyl-1-(2-ethoxyacetyl)-N-(4-(4-fluorophenoxy)phenyl)pyrrolidine-2-carboxamide] | ≤ 300 |
| COCC(=O)N1C[C@H](Cc2ccccc2)C[C@H]1C(=O)Nc1ccc(Oc2ccc(F)cc2)cc1 [Compound 122, (2S,4R)-4-benzyl-N-(4-(4-fluorophenoxy)phenyl)-1-(2-methoxyacetyl)pyrrolidine-2-carboxamide] | ≤ 300 |
| CC(=O)CCC(=O)N1C[C@H](Cc2ccccc2)C[C@H]1C(=O)Nc1ccc(Oc2ccc(F)cc2)cc1 [Compound 123, (2S,4R)-4-benzyl-N-(4-(4-fluorophenoxy)phenyl)-1-(4-oxopentanoyl)pyrrolidine-2-carboxamide] | ≤ 300 |
| O=C(CCC(=O)N1C[C@H](Cc2ccccc2)C[C@H]1C(=O)Nc1ccc(Oc2ccc(F)cc2)cc1)c1ccccc1 [Compound 124, (2S,4R)-4-benzyl-N-(4-(4-fluorophenoxy)phenyl)-1-(4-oxo-4-phenylbutanoyl)pyrrolidine-2-carboxamide] | ≤ 300 |
| COC(=O)CCC(=O)N1C[C@H](Cc2ccccc2)C[C@H]1C(=O)Nc1ccc(Oc2ccc(F)cc2)cc1 [Compound 125, methyl 4-((2S,4R)-4-benzyl-2-(4-(4-fluorophenoxy)phenylcarbamoyl)pyrrolidin-1-yl)-4-oxobutanoate] | ≤ 300 |
| O=C(CN1CCN(c2ccccn2)CC1)N[C@@H](COCc1ccccc1)C(=O)Nc1ccc(Oc2ccc(F)cc2)cc1 [Compound 126, (S)-3-(benzyloxy)-N-(4-(4-fluorophenoxy)phenyl)-2-(2-(4-(pyridin-2-yl)piperazin-1-yl)acetamido)propanamide] | > 1000 |
| O=C(CN1CCN(c2ccccc2F)CC1)N[C@@H](COCc1ccccc1)C(=O)Nc1ccc(Oc2ccc(F)cc2)cc1 [Compound 127, (S)-3-(benzyloxy)-N-(4-(4-fluorophenoxy)phenyl)-2-(2-(4-(2-fluorophenyl)piperazin-1-yl)acetamido)propanamide] | > 1000 |
| O=C(CN1CCCCCC1)N[C@@H](COCc1ccccc1)C(=O)Nc1ccc(Oc2ccc(F)cc2)cc1 [Compound 128, (S)-2-(2-(azepan-1-yl)acetamido)-3-(benzyloxy)-N-(4-(4-fluorophenoxy)phenyl)propanamide] | > 1000 |
| N#CCC(=O)N1C[C@H](Cc2ccccc2)C[C@H]1C(=O)Nc1ccc(Oc2ccc(F)cc2)cc1 [Compound 129, (2S,4R)-4-benzyl-1-(2-cyanoacetyl)-N-(4-(4-fluorophenoxy)phenyl)pyrrolidine-2-carboxamide] | ≤ 300 |
| CC1CCN(CC(=O)N[C@@H](COCc2ccccc2)C(=O)Nc2ccc(Oc3ccc(F)cc3)cc2)CC1 [Compound 130, (S)-3-(benzyloxy)-N-(4-(4-fluorophenoxy)phenyl)-2-(2-(4-methylpiperidin-1-yl)acetamido)propanamide] | > 1000 |

Further lines, results first:

| IC50 [nM] | SMILES |
| --- | --- |
| ≤ 300 | O=C(Nc1ccc(Oc2ccc(F)cc2)cc1)[C@@H]1C[C@@H](Cc2ccccc2)CN1C(=O)CSc1ncccn1 [Compound 94, (2S,4R)-4-benzyl-N-(4-(4-fluorophenoxy)phenyl)-1-(2-(pyrimidin-2-ylthio)acetyl)pyrrolidine-2-carboxamide] |
| ≤ 300 | O=C(Nc1ccc(Oc2ccc(F)cc2)cc1)[C@@H]1C[C@@H](Cc2ccccc2)CN1C(=O)Cc1c(F)cccc1F [Compound 95, (2S,4R)-4-benzyl-1-(2-(2,6-difluorophenyl)acetyl)-N-(4-(4-fluorophenoxy)phenyl)pyrrolidine-2-carboxamide] |
| ≤ 300 | O=C(Nc1ccc(Oc2ccc(F)cc2)cc1)[C@@H]1C[C@@H](Cc2ccccc2)CN1C(=O)CSc1ccncc1 [Compound 96, (2S,4R)-4-benzyl-N-(4-(4-fluorophenoxy)phenyl)-1-(2-(pyridin-4-ylthio)acetyl)pyrrolidine-2-carboxamide] |
| ≤ 300 | O=C(Nc1ccc(Oc2ccc(F)cc2)cc1)[C@@H]1C[C@@H](Cc2ccccc2)CN1C(=O)CN1C(=O)c2ccccc2C1=O [Compound 97] |
| ≤ 300 | O=C(Nc1ccc(Oc2ccc(F)cc2)cc1)[C@@H]1C[C@@H](Cc2ccccc2)CN1C(=O)Cc1c[nH]c2ccccc12 [Compound 98, (2S,4R)-1-(2-(1H-indol-3-yl)acetyl)-4-benzyl-N-(4-(4-fluorophenoxy)phenyl)pyrrolidine-2-carboxamide] |
| ≤ 300 | O=C(Nc1ccc(Oc2ccc(F)cc2)cc1)[C@@H]1C[C@@H](Cc2ccccc2)CN1C(=O)CN1C(=O)CSC1=S [Compound 99, (2S,4R)-4-benzyl-N-(4-(4-fluorophenoxy)phenyl)-1-(2-(4-oxo-2-thioxothiazolidin-3-yl)acetyl)pyrrolidine-2-carboxamide] |
| ≤ 300 | COCCN1CCN(CC(=O)N2C[C@H](Cc3ccccc3)C[C@H]2C(=O)Nc2ccc(Oc3ccc(F)cc3)cc2)CC1 [Compound 100, (2S,4R)-4-benzyl-N-(4-(4-fluorophenoxy)phenyl)-1-(2-(4-(2-methoxyethyl)piperazin-1-yl)acetyl)pyrrolidine-2-carboxamide] |
| ≤ 300 | O=C(Nc1ccc(Oc2ccc(F)cc2)cc1)[C@@H]1C[C@@H](Cc2ccccc2F)CN1C(=O)Cn1cncn1 [Compound 106, (2S,4R)-1-(2-(1H-1,2,4-triazol-1-yl)acetyl)-4-(2-fluorobenzyl)-N-(4-(4-fluorophenoxy)phenyl)pyrrolidine-2-carboxamide] |
| ≤ 300 | O=C(Nc1ccc(Oc2ccc(F)cc2)cc1)[C@@H]1C[C@@H](Cc2ccccc2F)CN1C(=O)Cn1nccn1 [Compound 107, (2S,4R)-1-(2-(2H-1,2,3-triazol-2-yl)acetyl)-4-(2-fluorobenzyl)-N-(4-(4-fluorophenoxy)phenyl)pyrrolidine-2-carboxamide] |
| ≤ 300 | O=C(Nc1ccc(Oc2ccc(F)cc2)cc1)[C@@H]1C[C@@H](Cc2c(F)cc(F)cc2F)CN1C(=O)Cn1cncn1 [Compound 108, (2S,4R)-1-(2-(1H-1,2,4-triazol-1-yl)acetyl)-N-(4-(4-fluorophenoxy)phenyl)-4-(2,4,6-trifluorobenzyl)pyrrolidine-2-carboxamide] |
| ≤ 300 | O=C(Nc1ccc(Oc2ccc(F)cc2)cc1)[C@@H]1C[C@@H](Cc2ccccc2)CN1C(=O)CN1CCOCC1 [Compound 116, (2S,4R)-4-benzyl-N-(4-(4-fluorophenoxy)phenyl)-1-(2-morpholinoacetyl)pyrrolidine-2-carboxamide] |
